These results are taken from US7109193B2, “Tricyclic diazepines tocolytic oxytocin receptor antagonists” (Wyeth, priority 2001, dated 2006).

Counter-ions that a name gives are not always drawn.

The target of one experiment is T1, human oxytocin receptor (Homo sapiens, UniProt P30559).
T1 construct: host or cells: CHO cells (pcDNA3.1 vector)
T1 sequence (P30559 1-389): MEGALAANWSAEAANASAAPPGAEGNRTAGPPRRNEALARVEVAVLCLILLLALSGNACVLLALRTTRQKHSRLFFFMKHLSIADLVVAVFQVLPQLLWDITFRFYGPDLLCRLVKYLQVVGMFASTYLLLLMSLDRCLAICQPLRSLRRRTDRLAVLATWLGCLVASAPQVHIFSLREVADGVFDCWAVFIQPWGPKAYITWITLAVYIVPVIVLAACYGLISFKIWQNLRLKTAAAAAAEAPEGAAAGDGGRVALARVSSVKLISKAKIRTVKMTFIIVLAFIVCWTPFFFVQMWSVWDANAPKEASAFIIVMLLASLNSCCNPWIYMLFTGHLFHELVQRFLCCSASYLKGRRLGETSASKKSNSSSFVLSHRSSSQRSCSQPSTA
As to the kind of experiment: Oxytocin binding in Chinese Hamster Ovary cell membranes expressing human oxytocin receptors. Conditions: 100 nM, CHO cell membranes, [3H]oxytocin, values without parentheses, read-out: OT % inhibition @ 100% nM.
As a reminder, the inhibition is the share of the control response that was lost under treatment. As to `CN(C)CCCNC(=O)c1ccc2n1Cc1ccccc1N(C(=O)c1ccc(-c3cccc4ccccc34)cc1Cl)C2` [Example 83, 10-[2-Chloro-4-(1-naphthyl)benzoyl]-N-[3-(dimethylamino)propyl]-10,11-dihydro-5H-pyrrolo[2,1-c][1,4]benzodiazepine-3-carboxamide], the inhibition at 0.1 µM turned out to be 10%.

For `COc1cc(C(=O)N2Cc3ccc(C(=O)N(C)CCN(C)C)n3Cc3ccccc32)ccc1-c1ccccc1C` [Example 92, N-[2-(Dimethylamino)ethyl]-10-[(2-methoxy-2′-methyl[1,1′-biphenyl]-4-yl)carbonyl]-N-methyl-10,11-dihydro-5H-pyrrolo[2,1-c][1,4]benzodiazepine-3-carboxamide], the inhibition at 0.1 µM stood at 99%.

`CN(C)CCN(C)C(=O)c1ccc2n1Cc1ccccc1N(C(=O)c1ccc(-c3cccc4ccccc34)cc1Cl)C2` [Example 96, 10-[2-Chloro-4-(1-naphthyl)benzoyl]-N-[2-(dimethylamino)ethyl]-N-methyl-10,11-dihydro-5H-pyrrolo[2,1-c][1,4]benzodiazepine-3-carboxamide]: the inhibition at 0.1 µM stood at 54%.

`COc1cc(C(=O)N2Cc3ccc(C(=O)N(C)CCN(C)C)n3Cc3ccccc32)ccc1-c1cccc2ccccc12` [Example 93, N-[2-(Dimethylamino)ethyl]-10-[3-methoxy-4-(1-naphthyl)benzoyl]-N-methyl-10,11-dihydro-5H-pyrrolo[2,1-c][1,4]benzodiazepine-3-carboxamide]: the inhibition at 0.1 µM worked out at 90%.

Turning to `COc1ccccc1-c1ccc(C(=O)N2Cc3ccc(C(=O)N(C)CCN(C)C)n3Cc3ccccc32)cc1C` [Example 88, N-[2-(Dimethylamino)ethyl]-10-[(2′-methoxy-2-methyl[1,1′-biphenyl]-4-yl)carbonyl]-N-methyl-10,11-dihydro-5H-pyrrolo[2,1-c][1,4]benzodiazepine-3-carboxamide], the inhibition at 0.1 µM came to 98%.

As for `COc1cc(C(=O)N2Cc3ccc(C(=O)N(C)CCCN(C)C)n3Cc3ccccc32)ccc1-c1ccccc1C` [Example 105, N-[3-(Dimethylamino)propyl]-10-[(2-methoxy-2′-methyl[1,1′-biphenyl]-4-yl)carbonyl]-N-methyl-10,11-dihydro-5H-pyrrolo[2,1-c][1,4]benzodiazepine-3-carboxamide], the inhibition at 0.1 µM was determined as 97%.

For the compound `COc1ccccc1-c1ccc(C(=O)N2Cc3ccc(C(=O)N(C)CCCN(C)C)n3Cc3ccccc32)cc1C` [Example 100, N-[3-(Dimethylamino)propyl]-10-[(2′-methoxy-2-methyl[1,1′-biphenyl]-4-yl)carbonyl]-N-methyl-10,11-dihydro-5H-pyrrolo[2,1-c][1,4]benzodiazepine-3-carboxamide], the inhibition at 0.1 µM turned out to be 98%.

`Cc1ccccc1-c1ccc(C(=O)N2Cc3ccc(C(=O)N(C)CCCN(C)C)n3Cc3ccccc32)cc1C` [Example 101, N-[3-(Dimethylamino)propyl]-10-[(2,2′-dimethyl[1,1′-biphenyl]-4-yl)carbonyl]-N-methyl-10,11-dihydro-5H-pyrrolo[2,1-c][1,4]benzodiazepine-3-carboxamide]: the inhibition at 0.1 µM came out at 100%.

Take `Cc1ccccc1-c1ccc(C(=O)N2Cc3ccc(C(=O)N(C)CCN(C)C)n3Cc3ccccc32)cc1` [Example 91, N-[2-(Dimethylamino)ethyl]-N-methyl-10-[(2′-methyl[1,1′-biphenyl]-4-yl)carbonyl]-10,11-dihydro-5H-pyrrolo[2,1-c][1,4]benzodiazepine-3-carboxamide]: the inhibition at 0.1 µM amounted to 97%.

The same experiment, now with this note: CHO cell membranes, [3H]oxytocin, values in parentheses, read-out: OT (IC50).
The IC50 is the concentration that inhibits the measured activity by half. On to `COc1cc(-c2ccccc2F)c(Cl)cc1C(=O)N1Cc2cccn2Cc2ccccc21` [Example 18B, 10-{[6-Chloro-3-methoxy-2′-fluoro-[1,1′-biphenyl]-4-yl]carbonyl}-10,11-dihydro-5H-pyrrolo[2,1-c][1,4]benzodiazepine], for which the IC50 is 14.5 nM.

As to `COc1cc(-c2ccccc2C)c(Cl)cc1C(=O)N1Cc2ccc(C(=O)N3CC[C@@H](N(C)C)C3)n2Cc2ccccc21` [Example 273, {10-[(6-Chloro-3-methoxy-2′-methyl[1,1′-biphenyl]-4-yl)carbonyl]-10,11-dihydro-5H-pyrrolo[2,1-c][1,4]benzodiazepin-3-yl}[(3R)-3-(dimethylamino)pyrrolidinyl]methanone], the IC50 turned out to be 4.26 nM.

As for `Cc1cc(C(=O)N2Cc3ccc(C(=O)N4CCNCC4)n3Cc3ccccc32)ccc1-c1ccccc1C(F)(F)F` [Example 7, 10,11-Dihydro-10-[[2-methyl-2′-trifluoromethyl-[1,1′-biphenyl]-4-yl]carbonyl]-3-(1-piperazinylcarbonyl)-5H-pyrrolo[2,1-c][1,4]benzodiazepine hydrochloride salt], the IC50 was 11.4 nM.

Consider `Cc1cc(C(=O)N2Cc3ccc(C(=O)N4CCN(CCCN(C)C)CC4)n3Cc3ccccc32)ccc1-c1ccccc1C(F)(F)F` [Example 4, [4-(3-Dimethylaminopropyl)-piperazin-1-yl]-[10-(2-methyl-2′-trifluoromethyl-[1,1′-biphenyl]-4-yl)carbonyl]-[10,11-dihydro-5H-pyrrolo[2,1-c][1,4]benzodiazepin-3-yl]-methanone], for which the IC50 came to 8.89 nM.

As to `COc1ccccc1-c1ccc(C(=O)N2Cc3ccc(C(=O)N4CCN(CCN5CCOCC5)CC4)n3Cc3ccccc32)cc1C` [Example 206, {10-[(2′-Methoxy-2-methyl[1,1′-biphenyl]-4-yl)carbonyl]-10,11-dihydro-5H-pyrrolo[2,1-c][1,4]benzodiazepin-3-yl}{4-[2-(4-morpholinyl)ethyl]-1-piperazinyl}methanone], the IC50 amounted to 3.66 nM.

Take `COc1cc(-c2ccccc2C)ccc1C(=O)N1Cc2ccc(C(=O)N(C)CCCN(C)C)n2Cc2ccccc21` [Example 11, N-Methyl-N-[3-(dimethylamino)propyl]-10-[(3-methoxy-2′-methyl[1,1′-biphenyl]-4-yl)carbonyl]-10,11-dihydro-5H-pyrrolo[2,1-c][1,4]benzodiazepine-3-carboxamide]: the IC50 worked out at 3.44 nM.

For the compound `Cc1cc(C(=O)N2Cc3ccc(C(=O)NC(=N)N)n3Cc3ccccc32)ccc1-c1ccccc1C(F)(F)F` [Example 8, N-[(10-{[2-methyl-2′-(trifluoromethyl)[1,1′-biphenyl]-4-yl]carbonyl}-10,11-dihydro-5H-pyrrolo[2,1-c][1,4]benzodiazepin-3-yl)carbonyl]guanidine], the IC50 was 6.37 nM.

For `COc1ccccc1-c1ccc(C(=O)N2Cc3ccc(C(=O)N4CCN(CCN5CCOCC5)CC4)n3Cc3ccccc32)cc1` [Example 207, {10-[(2′-Methoxy[1,1′-biphenyl]-4-yl)carbonyl]-10,11-dihydro-5H-pyrrolo[2,1-c][1,4]benzodiazepin-3-yl}{4-[2-(4-morpholinyl)ethyl]-1-piperazinyl}methanone], the IC50 amounted to 9.5 nM.

Take `C=CCN1CCN(C(=O)c2ccc3n2Cc2ccccc2N(C(=O)c2ccc(-c4ccccc4OC)cc2)C3)CC1` [Example 221, (4-Allyl-1-piperazinyl){10-[(2′-methoxy[1,1′-biphenyl]4-yl)carbonyl]-10,11-dihydro-5H -pyrrolo[2,1-c][1,4]benzodiazepin-3-yl}methanone]: the IC50 was determined as 11.1 nM.

Regarding `Cc1cc(C(=O)N2Cc3ccc(C(=O)N4CC[C@@H](N(C)C)C4)n3Cc3ccccc32)ccc1-c1ccccc1C(F)(F)F` [Example 271, [(3R)-3-(Dimethylamino)pyrrolidinyl](10-{[2-methyl-2′-(trifluoromethyl)[1,1′-biphenyl]-4-yl]carbonyl}-10,11-dihydro-5H-pyrrolo[2,1-c][1,4]benzodiazepin-3-yl)methanone], the IC50 stood at 6.29 nM.

Consider `O=C(c1ccc(-c2cccc3ccccc23)nc1)N1Cc2cccn2Cc2ccccc21` [Example 28, [6-(Naphthalen-1-yl)-pyridin-3-yl]-[10,11-dihydro-5H-pyrrolo[2,1-c][1,4]benzodiazepin-10-yl]methanone], for which the IC50 was 29.5 nM.

For the compound `COc1ccccc1-c1ccc(C(=O)N2Cc3ccc(C(=O)N4CC[C@@H](N(C)C)C4)n3Cc3ccccc32)cc1C` [Example 272, [(3R)-3-(Dimethylamino)pyrrolidinyl]{10-[(2′-methoxy-2-methyl[1,1′-biphenyl]-4-yl)carbonyl]-10,11-dihydro-5H-pyrrolo[2,1-c][1,4]benzodiazepin-3-yl}methanone], the IC50 is 2.61 nM.

In the case of `COc1cc(C(=O)N2Cc3ccc(C(=O)N4CCC[C@H]4CN4CCCC4)n3Cc3ccccc32)ccc1-c1ccccc1C(F)(F)F` [Example 20, {[10-(2-Methoxy)-2′-trifluoromethyl-[1,1′-biphenyl]-4-yl]carbonyl}-[(2S)-[(2-pyrrolidin-1-yl)methyl]pyrrolidin-1-yl]-10,11-dihydro-5H-pyrrolo[2,1-c][1,4]benzodiazepin-3-yl-methanone], the IC50 stood at 1.81 nM.

As to `COc1cc(-c2ccccc2C(F)(F)F)c(OC)cc1C(=O)N1Cc2cccn2Cc2ccccc21` [Example 32, 10-{[3,6-Dimethoxy-2′-trifluoromethyl-[1,1′-biphenyl]-4-yl]carbonyl}-10,11-dihydro-5H-pyrrolo[2,1-c][1,4]benzodiazepine], the IC50 is 185 nM.

On to `Cc1cc(C(=O)N2Cc3ccc(C(=O)N(C)CCN(C)C)n3Cc3ccccc32)ccc1-c1ccccc1C(F)(F)F` [Example 85, N-[2-(Dimethylamino)ethyl]-N-methyl-10-{[2-methyl-2′-(trifluoromethyl)[1,1′-biphenyl]-4-yl]carbonyl}-10,11-dihydro-5H-pyrrolo[2,1-c][1,4]benzodiazepine-3-carboxamide], for which the IC50 worked out at 3.02 nM.
